GI50 and TGI data for 9 compounds are collected here from PubChem BioAssay (NCI).

Several values for one entry are separate records, joined by “and”; a condition that tells them apart may be missing. Equal values may be shown once.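 Interpolation was linear, between the two tested concentrations surrounding the appropriate level; five concentrations were tested over 48 hours in 96-well plates. GI50: concentration for 50% inhibition of growth. The concentration for full growth arrest is given as TGI.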

Test systems include BT-549 breast; DU-145 prostate; HOP-92 NSCLC; SF-539 CNS; SK-MEL-2 melanoma; SN12C renal; TK-10 renal; UACC-257 melanoma; UO-31 renal; NCI/ADR-RES ovarian.
Holding throughout (test): DTP human tumour cell line panel, 48 h

Take `NC(=S)N=Nc1c(O)[nH]c2ccccc12`: the GI50 in the test on BT-549 breast is 131 µM; in the test with DU-145 prostate, 126 µM; in the test on HOP-92 NSCLC it was 64.8 µM and 106 µM; in the test with SF-539 CNS it was 170 µM; in the test on SK-MEL-2 melanoma, 296 µM; in the test with SN12C renal, 154 µM. Also, the GI50 is 165 µM in the test with TK-10 renal; 804 µM with UACC-257 melanoma; 39 µM and 126 µM with UO-31 renal. In addition, the TGI is 258 µM in the test on BT-549 breast; 284 µM with DU-145 prostate; 224 µM in the test with HOP-92 NSCLC; 361 µM in the test on SF-539 CNS; greater than 1000 µM in the test on SK-MEL-2 melanoma; 331 µM with SN12C renal. Further, the TGI in the test with TK-10 renal is 326 µM; in the test with UACC-257 melanoma, greater than 1000 µM; in the test on UO-31 renal it was 504 µM.
With `CC(C)CC1NC(=O)C(C(C)C)NC(=O)CC(C)COC(=O)C(CC(C)C)N(C)C(=O)C(C(C)C)NC(=O)C(C(C)C)OC1=O` (stereo unspecified), the TGI is greater than 50 µM in the test on BT-549 breast; greater than 50 µM with DU-145 prostate; greater than 50 µM in the test on HOP-92 NSCLC; greater than 50 µM with NCI/ADR-RES ovarian; 27.5 µM in the test with SF-539 CNS; greater than 50 µM in the test on SK-MEL-2 melanoma. In addition, the TGI with SN12C renal, in the test on UACC-257 melanoma and in the test on UO-31 renal was greater than 50 µM throughout.
Turning to `CCC(=O)Oc1ccc(/C=N/NC(N)=S)nc1`, the GI50 in the test on BT-549 breast was 11.9 µM; in the test with DU-145 prostate it was 3.05 µM; in the test on NCI/ADR-RES ovarian, 3.27 µM; in the test on SF-539 CNS, 1.51 µM; with SK-MEL-2 melanoma it was 33 µM; in the test with SN12C renal it was 3.75 µM. The GI50 with TK-10 renal is 49 µM; in the test with UACC-257 melanoma, 21.5 µM; in the test on UO-31 renal it was 3.48 µM. The concentration for total growth inhibition (TGI) is greater than 100 µM in the test with BT-549 breast; greater than 100 µM in the test with DU-145 prostate; greater than 100 µM in the test with NCI/ADR-RES ovarian; 5.52 µM in the test with SF-539 CNS; greater than 100 µM with SK-MEL-2 melanoma; greater than 100 µM with SN12C renal. The results for the TGI in the test with TK-10 renal, in the test on UACC-257 melanoma and in the test on UO-31 renal were greater than 100 µM, greater than 100 µM and 22.8 µM, respectively.
`COc1ccc(-c2cc(=O)c3cccnc3[nH]2)cc1`: the concentration for total growth inhibition (TGI) in the test on BT-549 breast, with DU-145 prostate, with NCI/ADR-RES ovarian, in the test with SF-539 CNS, with SK-MEL-2 melanoma and with SN12C renal was greater than 100 µM throughout. The TGI with TK-10 renal, with UACC-257 melanoma and with UO-31 renal was greater than 100 µM each time.
Take `CC1SC(c2cccc(Cl)c2)N(NC(=O)C(O)c2ccccc2)C1=O` (stereo unspecified): the GI50 in the test with BT-549 breast, in the test with DU-145 prostate, in the test with HOP-92 NSCLC, in the test with SF-539 CNS, with SK-MEL-2 melanoma and with SN12C renal was greater than 100 µM each time. Also, the GI50 in the test on TK-10 renal, in the test with UACC-257 melanoma and in the test on UO-31 renal was greater than 100 µM throughout. Further, the TGI with BT-549 breast, with DU-145 prostate, in the test on HOP-92 NSCLC, in the test with SF-539 CNS, in the test with SK-MEL-2 melanoma and in the test on SN12C renal was greater than 100 µM throughout. Besides, the total growth inhibition concentration (TGI) in the test with TK-10 renal, in the test with UACC-257 melanoma and with UO-31 renal was greater than 100 µM each time.
Consider `O=C(Nc1ccc(N2CCNCC2)cn1)c1[nH]ncc1Nc1ncnc2sc3c(c12)CCC3`, for which the GI50 in the test with BT-549 breast was 14.1 µM; in the test on DU-145 prostate it was 1.6 µM; in the test with HOP-92 NSCLC, 4.69 µM; in the test on NCI/ADR-RES ovarian, 4.75 µM; in the test with SK-MEL-2 melanoma, 13.6 µM; in the test on SN12C renal it was 2 µM. In addition, the GI50 in the test with TK-10 renal was 1.77 µM; in the test on UACC-257 melanoma, 16.6 µM; in the test on UO-31 renal, 1.58 µM. Moreover, the total growth inhibition concentration (TGI) with BT-549 breast was 38.6 µM; in the test on DU-145 prostate it was 3.06 µM; in the test on HOP-92 NSCLC, greater than 100 µM; in the test on NCI/ADR-RES ovarian it was greater than 100 µM; in the test with SK-MEL-2 melanoma, 35.1 µM; in the test with SN12C renal, 4.59 µM. Besides, the concentration for total growth inhibition (TGI) with TK-10 renal came out at 3.36 µM; in the test with UACC-257 melanoma, 41.2 µM; with UO-31 renal, 3.71 µM.
For the compound `CC(=O)c1cccc(NC(=O)/C(=N\NC(=S)NN)C2C(=O)Nc3ccccc3S2=O)c1` (stereo unspecified), the TGI in the test on BT-549 breast, with HOP-92 NSCLC, in the test on NCI/ADR-RES ovarian, in the test with SF-539 CNS, in the test on SK-MEL-2 melanoma and with SN12C renal was greater than 100 µM in each case. Moreover, the TGI with TK-10 renal, in the test with UACC-257 melanoma and in the test on UO-31 renal was greater than 100 µM in each case.
Consider `CSc1nc(-c2cccc(NC(=O)CCl)c2)c(C#N)c(=O)n1C`, for which the GI50 with BT-549 breast was 1.51 µM; in the test with DU-145 prostate, 1.77 µM; in the test with HOP-92 NSCLC, 1.75 µM; with SF-539 CNS, 1.47 µM; with SK-MEL-2 melanoma, 2.17 µM; with SN12C renal, 3.05 µM. The GI50 in the test on TK-10 renal was 2.38 µM; in the test with UACC-257 melanoma, 1.6 µM; with UO-31 renal, 1.47 µM. For the same compound, the TGI with BT-549 breast stood at 3.02 µM; in the test with DU-145 prostate, 3.44 µM; in the test with HOP-92 NSCLC, 3.38 µM; with SF-539 CNS, 2.88 µM; in the test on SK-MEL-2 melanoma it was 7.08 µM; with SN12C renal it was 18.1 µM. For the same compound, the total growth inhibition concentration (TGI) in the test with TK-10 renal came out at 5.53 µM; in the test on UACC-257 melanoma it was 6.08 µM; in the test on UO-31 renal, 2.82 µM.
On to `NCCNc1ncnc2ccc(Cl)cc12`, for which the concentration for total growth inhibition (TGI) in the test with BT-549 breast, in the test on DU-145 prostate, with HOP-92 NSCLC, with NCI/ADR-RES ovarian, with SK-MEL-2 melanoma and with SN12C renal was greater than 100 µM in each case. For the same compound, the concentration for total growth inhibition (TGI) in the test with TK-10 renal, in the test on UACC-257 melanoma and in the test with UO-31 renal was greater than 100 µM each time.

Usually GI50 stands for the concentration giving 50% growth inhibition. As usually defined, the TGI is the concentration at which net growth stops.
